Source: patent US11940442B2, “Method and system for determining integrated metabolic baseline and potential of living cells” (AGILENT TECHNOLOGIES, INC., priority 2015, dated 2024)

Experiments:
C2C12 myotubes = assay: Metabolic potential (OCR/ECAR, XFp) after co-injection of FCCP and oligomycin, etomoxir treatment; assay type: cell-based; conditions: 40 μM etomoxir, 1 hour; stress 0.5 μM FCCP + 1.0 μM oligomycin
Protocol: C2C12 myoblast cells were seeded into XFp microplates at a density of 1.2×10^4 cells/well. […] During differentiation, medium was replaced with fresh differentiation medium every other day. […] Metabolic potential was measured using an XFp Extracellular Flux Analyzer (Seahorse Bioscience) and XFp assay cartridges (Seahorse Bioscience). Briefly, microplates containing etomoxir-treated and control myotubes were placed in the XFp Extracellular Flux Analyzer, and initial OCR and ECAR measurements are taken.

[1] = tested on: RAW 264.7 macrophage cells; conditions: RAW 264.7 cells, in the presence of 1.0 μM oligomycin; FCCP 0.125-2 μM tested
From the text: Cultured cells are first seeded into the wells of an appropriate microplate (also referred to herein as a multi-well plate) for the instrument being used (as described above). • 2. After adherence to the microplate, cells are either allowed to grow as desired, or may be assayed for metabolic potential immediately. • 3. At time of assay, cell culture media is exchanged for a volume of assay media appropriate for the microplate being used to create a cell sample including a plurality of cells disposed in a media. The microplate is allowed to incubate for 1 h at 37° C. in a non-CO2 incubator. • 4. […] To titrate optimal FCCP concentration in an XFe96 instrument, RAW 264.7 macrophages are exposed to varying concentrations of the drug, and the resulting OCR is measured. In this example, cells were first treated with 1.0 μM oligomycin (final concentration in 200 μl assay media), OCR was measured, and then one of the following concentrations of FCCP was added: 0.125, 0.25, 0.5, 1.0, or 2.0 μM (final concentration in 222 μl assay media). […] The metabolic potential of the cell sample may be determined by (i) providing the initial oxygen consumption rate, the initial extracellular acidification rate, the subsequent oxygen consumption rate, and the subsequent extracellular acidification rate to a software program, and (ii) using the software program to calculate the metabolic potential. […]

C2C12 myoblast cells = assay: Metabolic potential (OCR/ECAR, XFp) after co-injection of FCCP and oligomycin, UK5099 treatment; assay type: cell-based; conditions: 2 μM UK5099, 1 hour; stress 0.5 μM FCCP + 1.0 μM oligomycin
Protocol: C2C12 myoblast cells were seeded into XFp microplates at a density of 1.2×10^4 cells/well.
Treated cells received media containing 2 μM UK5099 (a potent inhibitor of the mitochondrial pyruvate carrier), control cells received assay media.
(§1) Metabolic potential was measured using an XFp Extracellular Flux Analyzer (Seahorse Bioscience) and XFp assay cartridges (Seahorse Bioscience). Briefly, microplates containing UK5099-treated and control cells were placed in the XFp Extracellular Flux Analyzer, and initial OCR and ECAR measurements are taken.

[2] = tested on: RAW 264.7 macrophage cells; assay: Metabolic potential (OCR/ECAR, XFp) after co-injection of FCCP and oligomycin, LPS treatment; assay type: cell-based; conditions: 1 μg/ml LPS, 1 hour; stress 0.5 μM FCCP + 1.0 μM oligomycin
Protocol: Cells treated with LPS received media containing 1 μg/ml LPS, control cells received assay media.
as §1, with “LPS-treated” for “UK5099-treated”

CCOC(=O)[C@@]1(CCCCCCOc2ccc(Cl)cc2)CO1 [etomoxir]
aerobic metabolic potential compared to control myotubes (C2C12 myotubes): increased
glycolytic metabolic potential compared to control myotubes (C2C12 myotubes): slightly decreased

N#CC(C#N)=NNc1ccc(OC(F)(F)F)cc1 [FCCP, carbonyl cyanide p-trifluoromethoxyphenylhydrazone]
FCCP concentration at which maximal OCR is achieved [1]: 0.5 µM

N#C/C(=C\c1cn(-c2ccccc2)c2ccccc12)C(=O)O [UK5099]
aerobic metabolic potential relative to control cells (C2C12 myoblast cells): decreased
glycolytic metabolic potential relative to control cells (C2C12 myoblast cells): decreased

lipopolysaccharide [LPS]
aerobic metabolic potential relative to control cells [2]: increased
glycolytic potential relative to control cells [2]: roughly unchanged
